For the experiment, the target named is T1, Kir3.1/Kir3.4 (Rattus norvegicus, UniProt P48548+P63251).
T1 sequence (P63251 whole entry): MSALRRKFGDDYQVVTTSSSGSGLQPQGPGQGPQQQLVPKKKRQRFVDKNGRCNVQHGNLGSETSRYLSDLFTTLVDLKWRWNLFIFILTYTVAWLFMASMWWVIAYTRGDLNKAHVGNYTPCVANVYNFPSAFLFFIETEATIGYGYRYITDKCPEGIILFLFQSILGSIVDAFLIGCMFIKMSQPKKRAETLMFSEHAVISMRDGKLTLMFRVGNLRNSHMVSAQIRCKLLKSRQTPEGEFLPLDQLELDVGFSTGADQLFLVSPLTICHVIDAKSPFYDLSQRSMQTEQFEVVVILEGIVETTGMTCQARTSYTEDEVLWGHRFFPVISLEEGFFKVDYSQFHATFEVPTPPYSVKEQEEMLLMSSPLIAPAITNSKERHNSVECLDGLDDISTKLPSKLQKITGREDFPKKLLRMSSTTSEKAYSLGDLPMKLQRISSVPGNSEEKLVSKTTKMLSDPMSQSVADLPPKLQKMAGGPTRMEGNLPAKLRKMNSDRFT
T1 sequence (P48548 whole entry): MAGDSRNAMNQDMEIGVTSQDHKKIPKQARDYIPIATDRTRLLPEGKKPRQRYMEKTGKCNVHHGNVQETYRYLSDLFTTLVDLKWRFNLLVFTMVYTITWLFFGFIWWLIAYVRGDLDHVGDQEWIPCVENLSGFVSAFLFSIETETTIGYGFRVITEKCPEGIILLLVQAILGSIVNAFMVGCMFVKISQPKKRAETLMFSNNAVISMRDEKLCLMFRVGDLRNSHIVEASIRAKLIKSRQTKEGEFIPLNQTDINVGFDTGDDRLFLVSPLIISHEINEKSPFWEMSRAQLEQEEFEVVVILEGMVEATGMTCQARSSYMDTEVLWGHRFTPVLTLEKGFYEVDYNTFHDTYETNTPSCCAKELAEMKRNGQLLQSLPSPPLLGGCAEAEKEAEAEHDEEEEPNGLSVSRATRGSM
The experiment in a line: Inhibition of rat Kir3.1/Kir3.4 expressed in HEK293 cells assessed as reduction in depolarizing voltage step-induced recombinant G-protein activated inward rectifier current by whole cell patch clamp assay. The class given is cell-based. (In general: The patch-clamp technique gives a direct electrical read-out from membranes.)
Regarding `FC1(F)CCN(CCOCC2CCN(c3ncnc4scc(-c5ccccc5)c34)CC2)C1`, the IC50 (in general, the concentration that gives 50% inhibition) was < 500 nM.
On to `NC(=O)[C@@H]1CCCN1CCOCC1C2CN(c3ncnc4scc(-c5ccccc5)c34)CC12` (some centres not stated), for which the IC50 was < 500 nM.
Then `CN1CCCC1CCOCC1C2CN(c3ncnc4scc(-c5ccccc5)c34)CC12` (configuration not stated), with < 500 nM; and `c1ccc(-c2csc3ncnc(N4CCC(COCCN5CCOCC5)CC4)c23)cc1`, with < 500 nM; and `CCc1c(C)sc2ncnc(N3CCC(COCCN4CCCC4)CC3)c12`, with < 500 nM.
Then `CC(C)c1cc2c(N3CCC(COCCN4CCOCC4)CC3)ncnc2s1`, with ≤ 3000 nM; and `Fc1ccc(-c2csc3ncnc(N4CCC(COCCN5CCCC5)CC4)c23)cc1`, with < 500 nM.
Next, `F[C@H]1CCN(CCOCC2C3CN(c4ncnc5scc(-c6ccccc6)c45)CC23)C1` (some centres not stated): < 500 nM; `CN1CCC(OCC2CCN(c3ncnc4scc(-c5ccccc5)c34)CC2)CC1`: < 500 nM.
Take `CCc1c(C)sc2ncnc(N3CCC(COCCC4CCCCN4C)CC3)c12` (configuration not stated): the IC50 is < 500 nM.
Next, `F[C@H]1CCN(CCOCC2CCN(c3ncnc4scc(-c5ccccc5)c34)CC2)C1`: < 500 nM.
In the case of `Cc1sc2ncnc(N3CCC(COCCC4CCCN4C)CC3)c2c1C` (configuration not stated), the IC50 is < 500 nM.
Then `COc1ncccc1-c1csc2ncnc(N3CCC(COCCN4CCCC4)CC3)c12`, with < 500 nM.
On to `NC(=O)C1CCN(CCOCC2CCN(c3ncnc4scc(-c5ccccc5)c34)CC2)C1` (configuration not stated), for which the IC50 is < 500 nM.
Next, `CN(C)CCCOCC1CCN(c2ncnc3scc(-c4ccccc4)c23)CC1`: < 500 nM; `Fc1cccc(-c2csc3ncnc(N4CCC(COCCN5CCCC5)CC4)c23)c1`: < 500 nM.
Consider `CN1CCCC1CCOCC1CCN(c2ncnc3scc(-c4ccccc4)c23)CC1` (configuration not stated), for which the IC50 was < 500 nM.
Then `c1ccc(-c2csc3ncnc(N4CCC(COCCN5CC6CC5CO6)CC4)c23)cc1` (configuration not stated), with < 500 nM.
Next, `NC(=O)[C@H]1CCCN1CCOCC1C2CN(c3ncnc4scc(-c5ccccc5)c34)CC12` (some centres not stated): < 500 nM; `NC(=O)C1CCCN1CCOCC1CCN(c2ncnc3scc(-c4ccccc4)c23)CC1` (configuration not stated): < 500 nM.
For `CN1CCC(OCC2CCN(c3ncnc4scc(-c5ccccc5)c34)CC2)C1` (configuration not stated), the IC50 is < 500 nM.
For `CN1CCCCC1CCOCC1CCN(c2ncnc3scc(-c4ccccc4)c23)CC1` (configuration not stated), the IC50 is < 500 nM.
Then `c1ccc(-c2csc3ncnc(N4CC5C(COCCN6CCCC6)C5C4)c23)cc1` (configuration not stated), with < 500 nM; and `F[C@@H]1CCN(CCOCC2C3CN(c4ncnc5scc(-c6ccccc6)c45)CC23)C1` (some centres not stated), with < 500 nM; and `CN1CCCC1CCOCC1CCN(c2ncnc3scc(-c4cccc(F)c4)c23)CC1` (configuration not stated), with < 500 nM.
For the compound `CC(=O)NC1CCN(CCOCC2CCN(c3ncnc4scc(-c5ccccc5)c34)CC2)C1` (configuration not stated), the IC50 was < 500 nM.
Then `CN(C)CCOCC1CCN(c2ncnc3scc(-c4ccccc4)c23)CC1`, with < 500 nM.

The values are drawn from ChEMBL document CHEMBL3727349, “Thieno- and furo - pyrimidines and pyridines, useful as potassium channel inhibitors” (2013).
